This is an account of results in ChEMBL document CHEMBL1155407, “Synthesis and evaluation of duocarmycin SA analogs incorporating the methyl 1,2,8,8a-tetrahydrocyclopropa[c]oxazolo[2,3-e]indol-4-one-6-carboxylate (COI) alkylation subunit” (Bioorg Med Chem Lett, 2010).

Calls of active or inactive are those of the source. No cut-off for these calls is given here.

The test system of test [1] is Nucleic Acid. The experiment in a line: Alkylation of cell free 32p end labeled double stranded w794 DNA at 100 uM after 48 hrs by PAGE and autoradiography. In kind it is nucleic-acid assay.
The test system of test [2] is Nucleic Acid. In words: Alkylation of cell free 32p end labeled double stranded w794 DNA at 10 uM after 48 hrs by PAGE and autoradiography. In kind it is nucleic-acid assay.
Test [3] concerns L1210. In words: Cytotoxicity against mouse L1210 cells. It is filed as functional, cell-based.

In the case of `COC(=O)c1cc2c([nH]1)C(=O)C=C1N(C(=O)c3cc4cc(OC)c(OC)c(OC)c4[nH]3)C[C@H]3C[C@]123`, the result in test [1] was inactive. Further, in test [2], the result was Active.
In the case of `COC(=O)c1nc2c(O)cc3c(c2o1)C(CCl)CN3C(=O)OC(C)(C)C` (stereo unspecified), the IC50 – broadly, the concentration that gives 50% inhibition – in test [3] stood at 0.55 µM. That is a sub-micromolar value.
Turning to `COC(=O)c1nc2c(O)cc3c(c2o1)C(CCl)CN3C(=O)c1cc2cc(OC)c(OC)c(OC)c2[nH]1` (racemic), the result in test [1] was inactive. In addition, the result in test [2] was Active. The IC50 in test [3] was found to be 0.0054 µM.
